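Values below derive from 48-hour exposures of cells grown in 96-well plates, with endpoints linearly interpolated between the two concentrations bracketing the appropriate inhibition level. Abbreviation: GI50, concentration required for 50% inhibition of growth.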 Active and inactive are the calls of the source. Rule as the data show it: active = GI50 up to about 1.1 µM and inactive = higher.
How the values were obtained:
Experiment in all cases: NCI tumour cell line growth inhibition, 48 h
A549 = tested on: A549
CCRF-CEM = tested on: CCRF-CEM
COLO 205 = tested on: COLO 205
EKVX = tested on: EKVX
HOP-92 = tested on: HOP-92
IGROV-1 = tested on: IGROV-1
K562 = tested on: K562
LOX IMVI = tested on: LOX IMVI
MCF7 = tested on: MCF7
MOLT-4 = tested on: MOLT-4
NCI-H460 = tested on: NCI-H460
OVCAR-4 = tested on: OVCAR-4
PC-3 = tested on: PC-3
SF-268 = tested on: SF-268
SF-295 = tested on: SF-295
SK-MEL-28 = tested on: SK-MEL-28
SN12C = tested on: SN12C
SNB-19 = tested on: SNB-19
SW-620 = tested on: SW-620
T47D = tested on: T47D

| SMILES | GI50 (A549) | GI50 (CCRF-CEM) | GI50 (COLO 205) | GI50 (EKVX) | GI50 (HOP-92) | GI50 (IGROV-1) | GI50 (K562) | GI50 (LOX IMVI) | GI50 (MCF7) | GI50 (MOLT-4) | GI50 (NCI-H460) | GI50 (OVCAR-4) | GI50 (PC-3) | GI50 (SF-268) | GI50 (SF-295) | GI50 (SK-MEL-28) | GI50 (SN12C) | GI50 (SNB-19) | GI50 (SW-620) | GI50 (T47D) |
| --- | --- | --- | --- | --- | --- | --- | --- | --- | --- | --- | --- | --- | --- | --- | --- | --- | --- | --- | --- | --- |
| Nc1nc(Cl)cc(Oc2ccc(Cl)cc2)n1 | > 100 µM (inactive) | > 77.6 µM (inactive) | > 60.5 µM (inactive) | > 100 µM (inactive) | 23.2 µM (inactive) | > 100 µM (inactive) | > 55.8 µM (inactive) | > 48.3 µM (inactive) | > 53.2 µM (inactive) | > 60.5 µM (inactive) | > 54.7 µM (inactive) | > 53.2 µM (inactive) | > 100 µM (inactive) | > 54.8 µM (inactive) | > 55.8 µM (inactive) | > 57.3 µM (inactive) | > 51.9 µM (inactive) | > 53.7 µM (inactive) | > 58.6 µM (inactive) | 32.4 µM (inactive) |
| O=S(=O)(O)c1ccc(/N=N/c2ccccc2)cc1 | > 100 µM (inactive) | > 100 µM (inactive) | > 100 µM (inactive) | > 100 µM (inactive) | > 100 µM (inactive) | > 100 µM (inactive) | > 100 µM (inactive) | > 100 µM (inactive) | > 100 µM (inactive) | > 100 µM (inactive) | > 100 µM (inactive) | > 100 µM (inactive) | > 100 µM (inactive) | > 100 µM (inactive) | > 100 µM (inactive) | > 100 µM (inactive) | > 100 µM (inactive) | > 100 µM (inactive) | > 100 µM (inactive) | > 100 µM (inactive) |
| O=C(/C=C/c1cccc(Br)c1)c1ccc(Cl)cc1 | 16.8 µM (inactive) | 4.5 µM (inactive) | 17.2 µM (inactive) | 16 µM (inactive) | 15 µM (inactive) | 17.1 µM (inactive) | 6.58 µM (inactive) | 12.6 µM (inactive) | 4.38 µM (inactive) | 5.93 µM (inactive) | 16.9 µM (inactive) | 4.36 µM (inactive) | 15 µM (inactive) | 17.5 µM (inactive) | 17.5 µM (inactive) | 15.1 µM (inactive) | 17.2 µM (inactive) | 16.3 µM (inactive) | 2.95 µM (inactive) | 12.8 µM (inactive) |
| NC(=S)N1N=C(c2ccccc2O)CC1c1ccccc1 (stereo not given) | 16 µM (inactive) | 7.94 µM (inactive) | 8.97 µM (inactive) | 20.4 µM (inactive) | 17.1 µM (inactive) | 11.4 µM (inactive) | 3.85 µM (inactive) | 16.9 µM (inactive) | 4.45 µM (inactive) | 8.04 µM (inactive) | 14 µM (inactive) | 18.2 µM (inactive) | 5.24 µM (inactive) | 20.8 µM (inactive) | 6.43 µM (inactive) | 18.5 µM (inactive) | 13.8 µM (inactive) | 23.3 µM (inactive) | 9.59 µM (inactive) | 17.6 µM (inactive) |
| COc1ccc(N2C(=O)C3c4[nH]c5ccccc5c4C4C(C)CCCC4C3C2=O)cc1 (stereo not given) | > 45.1 µM (inactive) | 5.66 µM (inactive) | > 50.7 µM (inactive) | > 39.4 µM (inactive) | 35.1 µM (inactive) | 10 µM (inactive) | 9.14 µM (inactive) | 46.5 µM (inactive) | 37.2 µM (inactive) | 7.21 µM (inactive) | > 63.8 µM (inactive) | 33.7 µM (inactive) | 17.7 µM (inactive) | 41 µM (inactive) | 16.4 µM (inactive) | > 71.1 µM (inactive) | 40.9 µM (inactive) | > 44.6 µM (inactive) | > 53 µM (inactive) | > 78.7 µM (inactive) |
| CC1CCCC(C(=O)CC2CC(=O)NC(=O)C2)C1=O (stereo not given) | > 100 µM (inactive) | > 100 µM (inactive) | > 100 µM (inactive) | > 100 µM (inactive) | > 100 µM (inactive) | > 100 µM (inactive) | > 100 µM (inactive) | > 100 µM (inactive) | > 100 µM (inactive) | > 100 µM (inactive) | > 100 µM (inactive) | > 100 µM (inactive) | > 100 µM (inactive) | > 100 µM (inactive) | > 100 µM (inactive) | > 100 µM (inactive) | > 100 µM (inactive) | > 100 µM (inactive) | > 100 µM (inactive) | > 100 µM (inactive) |
| Cc1noc(NS(=O)(=O)c2ccc(NC(=O)c3ccc4[nH]c5ccccc5c(=O)c4c3)cc2)c1C | > 100 µM (inactive) | 23.7 µM (inactive) | 37.2 µM (inactive) | 80.4 µM (inactive) | 37.3 µM (inactive) | > 100 µM (inactive) | 28.1 µM (inactive) | 22.8 µM (inactive) | 30.5 µM (inactive) | 21.9 µM (inactive) | 87.9 µM (inactive) | 39.4 µM (inactive) | 36.1 µM (inactive) | 40.7 µM (inactive) | 42.2 µM (inactive) | 35.4 µM (inactive) | > 100 µM (inactive) | 87.9 µM (inactive) | > 100 µM (inactive) | 26.1 µM (inactive) |
| NC(=O)[C@H](Cc1ccc(O)cc1)NC1=C(Cl)C(=O)c2c(O)ccc(O)c2C1=O | 7.73 µM (inactive) | 0.241 µM (active) | 1.5 µM (inactive) | > 10 µM (inactive) | 2.13 µM (inactive) | 2.07 µM (inactive) | 1.45 µM (inactive) | 1.61 µM (inactive) | 1.32 µM (inactive) | 0.55 µM (active) | 7.76 µM (inactive) | 1.83 µM (inactive) | 2.24 µM (inactive) | 3.7 µM (inactive) | > 10 µM (inactive) | 2.21 µM (inactive) | 3.55 µM (inactive) | > 10 µM (inactive) | 1.06 µM (active) | 2.15 µM (inactive) |
| CCOC(=O)[C@@H](NC(=O)OC(C)(C)C)[C@@H](O)C(=O)OCC | > 100 µM (inactive) | > 100 µM (inactive) | > 100 µM (inactive) | > 100 µM (inactive) | > 100 µM (inactive) | > 100 µM (inactive) | > 100 µM (inactive) | > 100 µM (inactive) | > 100 µM (inactive) | > 100 µM (inactive) | > 100 µM (inactive) | > 100 µM (inactive) | > 100 µM (inactive) | > 100 µM (inactive) | > 100 µM (inactive) | > 100 µM (inactive) | > 100 µM (inactive) | > 100 µM (inactive) | > 100 µM (inactive) | > 100 µM (inactive) |
| O=C1C(O)=C(C(C2=C(O)C(=O)c3ccccc3C2=O)c2ccc(Cl)cc2)C(=O)c2ccccc21 | 19.3 µM (inactive) | 6.4 µM (inactive) | 18.6 µM (inactive) | 13.6 µM (inactive) | 14.3 µM (inactive) | 8.2 µM (inactive) | 15.2 µM (inactive) | 2.64 µM (inactive) | 5.13 µM (inactive) | 4.56 µM (inactive) | 14 µM (inactive) | 6.24 µM (inactive) | 18.8 µM (inactive) | 10.4 µM (inactive) | 5.78 µM (inactive) | 28.1 µM (inactive) | 1.71 µM (inactive) | 19.5 µM (inactive) | 4.69 µM (inactive) | 21 µM (inactive) |
| COc1cc(O)c(C(=O)/C=C/c2ccc(O)cc2)cc1Oc1ccc(/C=C/C(=O)c2ccc(O)cc2O)cc1 [RHUSCHALCONE III] | 14.8 µM (inactive) | 7.29 µM (inactive) | 8.43 µM (inactive) | 13 µM (inactive) | 11.4 µM (inactive) | 7.66 µM (inactive) | 9.75 µM (inactive) | 8.45 µM (inactive) | 8.69 µM (inactive) | 11.3 µM (inactive) | 11.6 µM (inactive) | 8.07 µM (inactive) | 7.21 µM (inactive) | 8.81 µM (inactive) | 10.1 µM (inactive) | 8.41 µM (inactive) | 8.81 µM (inactive) | 12.9 µM (inactive) | 11.2 µM (inactive) | 15.3 µM (inactive) |
